In series [1] the test system is PC-12. Kind of series: Protection against 6-OHDA-induced apoptosis in rat PC-12 cells assessed as early apoptotic cells at 10 uM pretreated for 12 hrs followed by 6-OHDA challenge by annexin V FITC/propidium iodide staining based flow cytometry (reference value: 2.4 %). Type of series: functional. Background: Flow cytometry measures light scatter and fluorescence of single cells or particles in a stream.

In series [2] the target is T1, Nuclear factor erythroid 2-related factor 2 (Mus musculus) (UniProt Q60795).
T1 sequence (whole entry): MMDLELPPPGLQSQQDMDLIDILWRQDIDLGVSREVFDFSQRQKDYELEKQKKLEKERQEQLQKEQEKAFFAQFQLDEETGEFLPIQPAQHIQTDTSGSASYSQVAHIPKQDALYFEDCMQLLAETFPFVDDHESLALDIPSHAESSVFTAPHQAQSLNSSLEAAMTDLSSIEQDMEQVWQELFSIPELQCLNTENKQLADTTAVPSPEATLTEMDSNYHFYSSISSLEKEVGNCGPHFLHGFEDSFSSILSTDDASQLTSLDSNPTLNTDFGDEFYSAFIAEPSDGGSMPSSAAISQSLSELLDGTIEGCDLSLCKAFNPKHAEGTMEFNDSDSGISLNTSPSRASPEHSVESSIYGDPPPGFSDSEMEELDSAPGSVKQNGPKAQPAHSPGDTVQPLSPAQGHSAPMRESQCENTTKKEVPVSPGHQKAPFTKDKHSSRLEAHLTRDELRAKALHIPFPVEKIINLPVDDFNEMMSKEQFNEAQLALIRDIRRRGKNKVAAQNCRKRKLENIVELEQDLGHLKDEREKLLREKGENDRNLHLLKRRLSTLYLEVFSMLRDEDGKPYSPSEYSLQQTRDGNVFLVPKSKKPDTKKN
Kind of series: Activation of Nrf2 in mouse BV-2 cells assessed as decrease in LPS-induced IL-6 production pretreated with compound for 2 hrs followed by LPS stimulation and further incubated for 18 hrs […]. In kind it is cell-based. As to conditions: filed as activator, dose 10.0 µM, time 20.0 hrs.

The subject of series [3] is PC-12. Briefly: Activation of Keap1-Nrf2-ARE pathway in rat PC-12 assessed as upregulation of HO-1 protein expression at 10 uM measured after 6 to 24 hrs by Western blot analysis. As to conditions: filed as activator, time 6-24 hrs.
Series [4] concerns PC-12. Kind of series: Activation of Keap1-Nrf2-ARE pathway in rat PC-12 assessed as upregulation of NQO1 protein expression measured after 12 hrs by Western blot analysis. As to conditions: filed as activator, dose 2.5-10 µM. On the technique in general: In western blotting, separated proteins are transferred to a membrane and probed.
The test system of the next series is BV-2. Kind of series: Antiinflammatory activity in mouse BV-2 cells transfected with Nrf2 siRNA assessed as inhibition of LPS-induced NO production at 10 uM pretreated with compound for 2 hrs followed by LPS stimulation and further incubated for 18 hrs. In kind it is functional, cell-based. As to conditions: time 20.0 hrs.
Series [5] deals with PC-12. Briefly: Protection against 6-OHDA-induced mitochondrial dysfunction in rat PC-12 cells assessed as change in mitochondrial membrane potential at 2.5 uM pretreated with compound for 12 hrs followed by 6-OHDA challenge by JC-1 staining based flow cytometry (reference value: 56 %). In kind it is functional.
Series [6] deals with T1, Nuclear factor erythroid 2-related factor 2 (Mus musculus). Briefly: Activation of Nrf2 in mouse BV-2 cells assessed as upregulation of TrxR1 protein expression after 24 hrs by Western blot analysis. Type of series: cell-based. The conditions noted are these: filed as activator, dose 2.5-10 µM.
In series [7] the test system is PC-12. Kind of series: Protection against H2O2-induced apoptosis in rat PC-12 cells assessed as late apoptic cells at 5 uM pretreated for 12 hrs followed by H2O2 challenge by annexin V FITC/propidium iodide staining based flow cytometry (reference value: 20.8 %). In kind it is functional.
Series [8] concerns PC-12. Kind of series: Cytoprotective activity against H2O2- induced cell death in rat PC-12 cells assessed as decrease in LDH release pretreated for 12 hrs followed by H2O2 challenge by LDH assay. In kind it is functional, cell-based. As to conditions: dose 2.5-10 µM. (In general: Release of lactate dehydrogenase indicates damage to the cell membrane.)
In series [9] the test system is PC-12. Briefly: Protection against H2O2-induced mitochondrial dysfunction in rat PC-12 cells assessed as change in mitochondrial membrane potential at 5 uM pretreated with compound for 12 hrs followed by H2O2 challenge by JC-1 staining based flow cytometry (reference value: 73 %). Type of series: functional.
The target of series [10] is T1, Nuclear factor erythroid 2-related factor 2 (Mus musculus). Kind of series: Activation of Nrf2 in mouse BV-2 cells assessed as upregulation of NQO1 protein expression after 24 hrs by Western blot analysis. In kind it is cell-based. The conditions noted are these: filed as activator, dose 2.5-10 µM.
Series [11] relates to PC-12. Briefly: Protection against H2O2-induced apoptosis in rat PC-12 cells assessed as viable cells at 10 uM pretreated for 12 hrs followed by H2O2 challenge by annexin V FITC/propidium iodide staining based flow cytometry (reference value: 73.3 %). Type of series: functional. As to conditions: read-out: Activity.
Series [12] has as its system PC-12. Briefly: Cytoprotective activity against 6-OHDA-induced oxidative stress in rat PC-12 cells assessed as decrease in cell death at 10 uM pretreated with brusatol for 1 hr followed by compound treatment for 12 hrs and subsequent 6-OHDA challenge by MTT assay. In kind it is functional, cell-based.
In another series the target is Beta-secretase 1 (Homo sapiens, UniProt P56817). Briefly: Inhibition of BACE-1 (unknown origin) using Mca-Ser-Glu-Val-Asn-Leu-Asp-Ala-Glu-Phe-Lys-Dnp-OH as substrate preincubated for 30 mins followed by substrate addition and measured after 1 hr by FRET assay.
In series [13] the test system is PC-12. Briefly: Cytotoxicity against rat PC-12 cells at 25 uM incubated for 24 hrs by MTT assay. Type of series: cell-based. As to conditions: pc-12, 24 h.
A short description of a further series: in vitro. The conditions noted are these: PAMPA.
Series [14] has as its system PC-12. Kind of series: Protection against H2O2-induced apoptosis in rat PC-12 cells assessed as early apoptic cells at 2.5 uM pretreated for 12 hrs followed by H2O2 challenge by annexin V FITC/propidium iodide staining based flow cytometry (reference value: 2.2 %). In kind it is functional.
The test system of series [15] is PC-12. Briefly: Protection against 6-OHDA-induced mitochondrial dysfunction in rat PC-12 cells assessed as change in mitochondrial membrane potential at 10 uM pretreated with compound for 12 hrs followed by 6-OHDA challenge by JC-1 staining based flow cytometry (reference value: 56 %). Type of series: functional.
The test system of series [16] is PC-12. Kind of series: Protection against 6-OHDA-induced apoptosis in rat PC-12 cells assessed as late apoptotic cells at 10 uM pretreated for 12 hrs followed by 6-OHDA challenge by annexin V FITC/propidium iodide staining based flow cytometry (reference value: 17.3 %). Type of series: functional.
The test system of series [17] is PC-12. Briefly: Protection against H2O2-induced apoptosis in rat PC-12 cells assessed as late apoptic cells at 2.5 uM pretreated for 12 hrs followed by H2O2 challenge by annexin V FITC/propidium iodide staining based flow cytometry (reference value: 20.8 %). Type of series: functional.
The target of series [18] is T1, Nuclear factor erythroid 2-related factor 2 (Mus musculus). Briefly: Activation of Nrf2 in mouse BV-2 cells assessed as upregulation of GCLM protein expression after 24 hrs by Western blot analysis. In kind it is cell-based. As to conditions: filed as activator, dose 2.5-10 µM.
In series [19] the test system is PC-12. Briefly: Cytoprotective activity against H2O2-induced cell damage in rat PC-12 cells transfected with Nrf2 siRNA at 10 uM. Type of series: functional, cell-based.
The subject of series [20] is PC-12. Kind of series: Cytoprotective activity against H2O2- induced cell death in rat PC-12 cells assessed as increase in viable cells pretreated for 12 hrs followed by H2O2 challenge by MTT assay. In kind it is functional, cell-based. As to conditions: dose 2.5-10 µM.
The nature of series [21]: Glutathione peroxidase-like activity in pH 7.5 potassium phosphate buffer assessed as catalytic reduction of H2O2 by measuring initial velocity at 25 degreeC using GSH in presence of NADPH by UV absorbance analysis (reference value: 30.41+/- 2.06 microM/min). In kind it is functional.

pIC50: −log10 of the molar value. Activity calls are given as the source filed them. No cut-off for these calls is given here.

Beta-secretase 1, sequence (P56817 whole entry): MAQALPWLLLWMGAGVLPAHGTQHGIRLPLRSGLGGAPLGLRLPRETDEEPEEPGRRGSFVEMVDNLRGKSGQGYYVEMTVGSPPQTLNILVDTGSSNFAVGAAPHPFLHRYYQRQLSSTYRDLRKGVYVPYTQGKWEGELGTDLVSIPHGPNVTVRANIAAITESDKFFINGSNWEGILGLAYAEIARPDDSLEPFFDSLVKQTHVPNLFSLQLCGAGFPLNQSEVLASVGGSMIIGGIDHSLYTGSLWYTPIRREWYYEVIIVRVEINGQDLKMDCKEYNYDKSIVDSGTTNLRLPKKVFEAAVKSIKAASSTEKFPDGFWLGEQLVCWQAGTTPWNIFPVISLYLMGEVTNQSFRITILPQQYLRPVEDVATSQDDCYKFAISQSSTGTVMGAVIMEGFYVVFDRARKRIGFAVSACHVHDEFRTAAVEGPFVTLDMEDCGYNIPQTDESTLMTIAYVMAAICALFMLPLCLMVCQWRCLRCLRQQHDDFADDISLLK

As for `CN1C(N)=N[C@](C)(c2cc(-n3[se]c4cc(F)ccc4c3=O)ccc2F)CS1(=O)=O`, the Activity was 1.4% in the series on PC-12 [1]; 61.2% in the series with PC-12 [5]; “Dose-Dependent Effect” in series [6]; 8.1% in the series on PC-12 [7]; “Dose-Dependent Effect” in the series on PC-12 [8]; 85.9% in the series on PC-12 [9]. In addition, the Activity entry in series [10] is “Dose-Dependent Effect”; in the series on PC-12 [13], “Non-Toxic”; with PC-12 [14], 2%; with PC-12 [15], 78.6%; in the series on PC-12 [16], 6.7%; in the series with PC-12 [17], 12.3%. The Activity entry (in [18]; in the series with PC-12 [20]) was “Dose-Dependent Effect” each time. The result (in series [2]; in the series with PC-12 [3]; in the series with PC-12 [4]) was Active. The result with BV-2, in the series with PC-12 [12] and with PC-12 [19] was inactive. The viability at 10 µM in the series with PC-12 [11] was determined as 92.6%. Also, the pIC50 (as a rule, the IC50 on a negative log10 scale, so that one unit is a factor of ten) against Beta-secretase 1 was 5.97. Further, in “in vitro”, the Papp – broadly, a coefficient for how fast a substance crosses the barrier – at 16 h stood at 16 ×10⁻⁶ cm/s. Further, in [21], the V0 was found to be 183 µM/min.
